Source: ChEMBL document CHEMBL5465560, “Selectivity Literature for EUbOPEN Chemogenomic Library” (2024)

Tests used:
[1] = target: T1, Dual specificity mitogen-activated protein kinase kinase 6 (Homo sapiens) (UniProt P52564); test: Selectivity interaction (Millipore kinase profiler) EUB0000124b MAP2K6; conditions: at 10 µM
T1 sequence (whole entry): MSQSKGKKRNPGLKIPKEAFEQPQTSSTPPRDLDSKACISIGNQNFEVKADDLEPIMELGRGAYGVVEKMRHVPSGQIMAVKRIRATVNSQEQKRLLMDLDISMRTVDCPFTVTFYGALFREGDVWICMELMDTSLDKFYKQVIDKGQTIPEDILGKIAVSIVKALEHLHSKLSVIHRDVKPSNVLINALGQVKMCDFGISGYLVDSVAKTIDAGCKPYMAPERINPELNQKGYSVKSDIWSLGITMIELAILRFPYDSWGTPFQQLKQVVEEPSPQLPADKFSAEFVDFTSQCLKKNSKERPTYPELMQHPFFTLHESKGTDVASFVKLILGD

[2] = target: Non-receptor tyrosine-protein kinase TYK2 (Homo sapiens, UniProt P29597); test: Selectivity interaction (KinomeScan (DiscoverX)) EUB0000666a TYK2; conditions: at 10 µM
[3] = target: Serine/threonine-protein kinase 10 (Homo sapiens) (UniProt O94804); test: Selectivity interaction (KinomeScan (DiscoverX)) EUB0000229b STK10; conditions: at 10 µM
[4] = Selectivity interaction (ActivX KiNativ screen (kinase selectivity in THP-1 cell lysates)) EUB0000639a STLK6; conditions: Selectivity number of targets 283, Source Knowledge https://pubmed.ncbi.nlm.nih.gov/28498658/
[5] = target: Angiopoietin-1 receptor (Homo sapiens) (UniProt Q02763); test: Selectivity interaction (KinomeScan (DiscoverX)) EUB0000595a TEK; conditions: at 10 µM
[6] = target: Mitogen-activated protein kinase kinase kinase kinase 5 (Homo sapiens) (UniProt Q9Y4K4); test: Selectivity interaction (KinomeScan (DiscoverX)) EUB0000045b MAP4K5
[7] = target: T2, NUAK family SNF1-like kinase 2 (Homo sapiens) (UniProt Q9H093); test: Selectivity interaction (KinomeScan (DiscoverX)) EUB0000618a NUAK2; conditions: at 10 µM
T2 sequence (whole entry): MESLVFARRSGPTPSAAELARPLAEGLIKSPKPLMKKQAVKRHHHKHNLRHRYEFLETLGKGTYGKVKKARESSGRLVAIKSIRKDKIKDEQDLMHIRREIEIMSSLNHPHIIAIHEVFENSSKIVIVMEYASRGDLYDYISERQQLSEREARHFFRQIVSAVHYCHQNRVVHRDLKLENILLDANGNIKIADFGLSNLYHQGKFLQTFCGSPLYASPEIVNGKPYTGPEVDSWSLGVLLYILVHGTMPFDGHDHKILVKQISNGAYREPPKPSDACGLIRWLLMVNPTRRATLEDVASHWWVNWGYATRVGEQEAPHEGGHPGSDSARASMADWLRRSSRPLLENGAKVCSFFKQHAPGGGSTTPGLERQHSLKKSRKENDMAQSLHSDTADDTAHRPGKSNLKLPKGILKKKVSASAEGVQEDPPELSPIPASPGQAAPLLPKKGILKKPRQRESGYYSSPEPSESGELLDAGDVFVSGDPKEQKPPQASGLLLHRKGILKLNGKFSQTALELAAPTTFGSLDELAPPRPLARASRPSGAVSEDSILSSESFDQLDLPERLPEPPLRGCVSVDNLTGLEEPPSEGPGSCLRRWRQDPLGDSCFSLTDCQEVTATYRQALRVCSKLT

[8] = target: Tyrosine-protein kinase CSK (Homo sapiens) (UniProt P41240); test: Selectivity interaction (KinomeScan (DiscoverX)) EUB0000655a CSK; conditions: at 10 µM
[9] = target: Serine/threonine-protein kinase MRCK gamma (Homo sapiens) (UniProt Q6DT37); test: Selectivity interaction (KinomeScan (DiscoverX)) EUB0000655a CDC42BPG; conditions: at 10 µM
[10] = target: T3, Serine/threonine-protein kinase NLK (Homo sapiens) (UniProt Q9UBE8); test: Selectivity interaction (KinomeScan (DiscoverX)) EUB0001868a NLK; conditions: at 1 µM
T3 sequence (whole entry): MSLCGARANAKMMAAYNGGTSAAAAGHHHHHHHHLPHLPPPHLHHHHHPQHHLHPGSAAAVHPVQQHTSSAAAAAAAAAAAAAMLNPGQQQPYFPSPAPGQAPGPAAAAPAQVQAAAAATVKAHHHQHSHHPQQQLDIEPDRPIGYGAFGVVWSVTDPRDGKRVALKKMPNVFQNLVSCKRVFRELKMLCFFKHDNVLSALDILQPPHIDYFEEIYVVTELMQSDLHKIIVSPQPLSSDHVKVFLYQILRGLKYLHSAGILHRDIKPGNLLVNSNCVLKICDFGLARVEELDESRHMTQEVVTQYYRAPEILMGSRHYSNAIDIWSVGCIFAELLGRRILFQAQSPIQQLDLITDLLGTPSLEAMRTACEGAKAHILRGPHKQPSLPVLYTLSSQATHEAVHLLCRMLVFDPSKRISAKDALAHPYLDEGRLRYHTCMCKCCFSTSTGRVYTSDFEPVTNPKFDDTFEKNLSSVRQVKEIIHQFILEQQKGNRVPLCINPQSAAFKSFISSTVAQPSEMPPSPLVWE

[11] = target: Ribosomal protein S6 kinase beta-2 (Homo sapiens) (UniProt Q9UBS0); test: Selectivity interaction (Kinase panel (Z-LYTE Assay)) EUB0001632a RPS6KB2; conditions: at 10 µM
Sequence of Ribosomal protein S6 kinase beta-2 (Homo sapiens) (Q9UBS0 whole entry): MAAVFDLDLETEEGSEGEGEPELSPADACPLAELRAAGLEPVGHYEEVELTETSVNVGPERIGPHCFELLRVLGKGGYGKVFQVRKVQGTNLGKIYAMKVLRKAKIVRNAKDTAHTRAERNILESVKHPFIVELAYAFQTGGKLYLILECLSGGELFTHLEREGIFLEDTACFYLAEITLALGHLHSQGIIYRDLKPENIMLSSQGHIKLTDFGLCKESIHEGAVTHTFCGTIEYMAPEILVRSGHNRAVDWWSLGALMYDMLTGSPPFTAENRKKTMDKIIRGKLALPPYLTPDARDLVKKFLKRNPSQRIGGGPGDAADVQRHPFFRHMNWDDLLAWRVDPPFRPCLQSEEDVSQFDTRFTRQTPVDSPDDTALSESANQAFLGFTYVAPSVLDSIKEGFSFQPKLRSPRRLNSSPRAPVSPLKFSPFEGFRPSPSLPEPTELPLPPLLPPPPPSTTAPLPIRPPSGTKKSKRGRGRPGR

Sequence of Mitogen-activated protein kinase kinase kinase kinase 5 (Homo sapiens) (Q9Y4K4 whole entry, looked up): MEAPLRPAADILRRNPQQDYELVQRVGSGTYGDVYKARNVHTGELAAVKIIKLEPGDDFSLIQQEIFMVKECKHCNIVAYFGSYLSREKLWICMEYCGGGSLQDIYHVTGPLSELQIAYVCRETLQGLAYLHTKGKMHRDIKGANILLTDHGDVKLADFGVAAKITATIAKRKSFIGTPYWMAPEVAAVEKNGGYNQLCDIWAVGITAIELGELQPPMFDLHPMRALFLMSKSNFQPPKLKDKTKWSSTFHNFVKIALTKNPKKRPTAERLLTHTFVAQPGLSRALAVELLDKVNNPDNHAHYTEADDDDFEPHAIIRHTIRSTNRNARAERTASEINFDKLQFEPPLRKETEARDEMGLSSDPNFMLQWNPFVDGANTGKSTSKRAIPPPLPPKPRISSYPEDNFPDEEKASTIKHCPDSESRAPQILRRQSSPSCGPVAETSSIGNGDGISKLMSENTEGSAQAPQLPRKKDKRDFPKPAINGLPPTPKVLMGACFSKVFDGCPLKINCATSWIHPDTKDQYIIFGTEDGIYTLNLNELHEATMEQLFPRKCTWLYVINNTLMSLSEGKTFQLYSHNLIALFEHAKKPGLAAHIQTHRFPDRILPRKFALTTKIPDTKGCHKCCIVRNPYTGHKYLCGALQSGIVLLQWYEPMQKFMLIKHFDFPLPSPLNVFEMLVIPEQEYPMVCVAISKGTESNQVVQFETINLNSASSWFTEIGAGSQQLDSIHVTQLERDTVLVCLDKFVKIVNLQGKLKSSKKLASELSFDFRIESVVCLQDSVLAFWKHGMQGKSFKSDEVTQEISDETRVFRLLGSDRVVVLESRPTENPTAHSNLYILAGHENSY
Sequence of Angiopoietin-1 receptor (Homo sapiens) (Q02763 whole entry): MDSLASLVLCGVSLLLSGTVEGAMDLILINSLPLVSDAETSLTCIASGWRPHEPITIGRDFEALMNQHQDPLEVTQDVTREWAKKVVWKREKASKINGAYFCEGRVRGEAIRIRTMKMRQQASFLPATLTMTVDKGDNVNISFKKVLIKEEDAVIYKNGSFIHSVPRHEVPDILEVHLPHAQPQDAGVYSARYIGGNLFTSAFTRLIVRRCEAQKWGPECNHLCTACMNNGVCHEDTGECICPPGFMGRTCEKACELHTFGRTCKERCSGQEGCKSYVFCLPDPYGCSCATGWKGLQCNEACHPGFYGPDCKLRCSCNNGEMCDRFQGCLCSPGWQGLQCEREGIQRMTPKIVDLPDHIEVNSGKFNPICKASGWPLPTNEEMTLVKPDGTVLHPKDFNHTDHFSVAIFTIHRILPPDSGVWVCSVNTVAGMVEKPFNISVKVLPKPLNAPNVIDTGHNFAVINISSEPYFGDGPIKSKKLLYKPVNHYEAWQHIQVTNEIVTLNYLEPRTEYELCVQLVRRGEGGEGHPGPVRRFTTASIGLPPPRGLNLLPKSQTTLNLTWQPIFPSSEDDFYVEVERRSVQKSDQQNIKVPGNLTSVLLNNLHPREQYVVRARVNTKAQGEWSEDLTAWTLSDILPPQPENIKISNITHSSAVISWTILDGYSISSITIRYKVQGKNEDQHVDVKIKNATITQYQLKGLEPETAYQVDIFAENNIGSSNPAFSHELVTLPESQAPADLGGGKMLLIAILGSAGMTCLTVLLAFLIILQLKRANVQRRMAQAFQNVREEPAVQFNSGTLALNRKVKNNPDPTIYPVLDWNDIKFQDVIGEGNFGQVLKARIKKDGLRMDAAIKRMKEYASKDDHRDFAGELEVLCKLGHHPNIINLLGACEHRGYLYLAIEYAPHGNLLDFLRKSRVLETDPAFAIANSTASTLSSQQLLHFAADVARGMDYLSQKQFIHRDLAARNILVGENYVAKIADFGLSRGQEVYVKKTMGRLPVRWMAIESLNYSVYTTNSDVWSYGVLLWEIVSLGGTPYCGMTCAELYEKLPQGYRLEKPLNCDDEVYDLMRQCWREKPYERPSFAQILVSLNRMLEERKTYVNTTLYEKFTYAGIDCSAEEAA
Sequence of Tyrosine-protein kinase CSK (Homo sapiens) (P41240 2-450 limits assumed): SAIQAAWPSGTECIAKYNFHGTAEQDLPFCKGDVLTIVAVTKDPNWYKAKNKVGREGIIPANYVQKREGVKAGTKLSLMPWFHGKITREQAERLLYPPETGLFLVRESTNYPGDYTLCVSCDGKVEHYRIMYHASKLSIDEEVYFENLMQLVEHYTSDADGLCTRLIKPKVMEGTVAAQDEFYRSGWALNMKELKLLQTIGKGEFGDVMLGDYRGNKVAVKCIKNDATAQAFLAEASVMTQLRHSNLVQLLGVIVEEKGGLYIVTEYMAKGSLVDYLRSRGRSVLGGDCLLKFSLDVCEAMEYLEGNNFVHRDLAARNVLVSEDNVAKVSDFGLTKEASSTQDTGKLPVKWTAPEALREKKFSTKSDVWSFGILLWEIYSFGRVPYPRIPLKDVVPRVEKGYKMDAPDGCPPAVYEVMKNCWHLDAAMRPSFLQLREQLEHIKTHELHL
Sequence of Non-receptor tyrosine-protein kinase TYK2 (P29597 whole entry): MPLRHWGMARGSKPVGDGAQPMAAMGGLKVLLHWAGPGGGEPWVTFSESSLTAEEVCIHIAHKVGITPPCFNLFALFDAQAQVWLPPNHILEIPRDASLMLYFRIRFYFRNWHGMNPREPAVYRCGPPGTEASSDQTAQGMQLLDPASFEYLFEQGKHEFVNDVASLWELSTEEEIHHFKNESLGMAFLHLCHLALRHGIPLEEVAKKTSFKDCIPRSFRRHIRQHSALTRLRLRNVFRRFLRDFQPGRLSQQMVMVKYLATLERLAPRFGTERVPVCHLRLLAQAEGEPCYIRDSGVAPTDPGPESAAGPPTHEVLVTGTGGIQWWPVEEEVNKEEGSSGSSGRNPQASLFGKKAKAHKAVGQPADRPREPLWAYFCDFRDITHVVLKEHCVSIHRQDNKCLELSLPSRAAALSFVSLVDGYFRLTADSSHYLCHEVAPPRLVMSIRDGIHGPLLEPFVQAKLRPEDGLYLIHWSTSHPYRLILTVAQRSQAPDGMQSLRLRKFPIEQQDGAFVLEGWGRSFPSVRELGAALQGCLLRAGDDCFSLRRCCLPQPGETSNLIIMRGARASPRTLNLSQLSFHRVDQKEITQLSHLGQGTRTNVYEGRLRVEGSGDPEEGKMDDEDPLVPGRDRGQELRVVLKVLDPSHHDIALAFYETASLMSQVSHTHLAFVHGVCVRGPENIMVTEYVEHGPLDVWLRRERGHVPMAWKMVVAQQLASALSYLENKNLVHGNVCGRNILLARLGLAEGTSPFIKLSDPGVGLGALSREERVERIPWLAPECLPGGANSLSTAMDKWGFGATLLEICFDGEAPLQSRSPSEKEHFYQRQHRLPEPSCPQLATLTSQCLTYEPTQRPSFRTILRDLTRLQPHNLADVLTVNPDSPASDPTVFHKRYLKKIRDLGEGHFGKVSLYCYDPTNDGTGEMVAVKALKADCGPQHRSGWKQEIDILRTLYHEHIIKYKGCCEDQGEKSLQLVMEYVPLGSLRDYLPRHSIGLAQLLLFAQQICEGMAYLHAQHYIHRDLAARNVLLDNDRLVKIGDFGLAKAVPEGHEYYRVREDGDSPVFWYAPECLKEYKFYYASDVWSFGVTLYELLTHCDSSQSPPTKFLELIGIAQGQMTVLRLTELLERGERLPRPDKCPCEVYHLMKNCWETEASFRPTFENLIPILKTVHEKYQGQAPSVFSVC
Sequence of Serine/threonine-protein kinase 10 (Homo sapiens) (O94804 whole entry, looked up): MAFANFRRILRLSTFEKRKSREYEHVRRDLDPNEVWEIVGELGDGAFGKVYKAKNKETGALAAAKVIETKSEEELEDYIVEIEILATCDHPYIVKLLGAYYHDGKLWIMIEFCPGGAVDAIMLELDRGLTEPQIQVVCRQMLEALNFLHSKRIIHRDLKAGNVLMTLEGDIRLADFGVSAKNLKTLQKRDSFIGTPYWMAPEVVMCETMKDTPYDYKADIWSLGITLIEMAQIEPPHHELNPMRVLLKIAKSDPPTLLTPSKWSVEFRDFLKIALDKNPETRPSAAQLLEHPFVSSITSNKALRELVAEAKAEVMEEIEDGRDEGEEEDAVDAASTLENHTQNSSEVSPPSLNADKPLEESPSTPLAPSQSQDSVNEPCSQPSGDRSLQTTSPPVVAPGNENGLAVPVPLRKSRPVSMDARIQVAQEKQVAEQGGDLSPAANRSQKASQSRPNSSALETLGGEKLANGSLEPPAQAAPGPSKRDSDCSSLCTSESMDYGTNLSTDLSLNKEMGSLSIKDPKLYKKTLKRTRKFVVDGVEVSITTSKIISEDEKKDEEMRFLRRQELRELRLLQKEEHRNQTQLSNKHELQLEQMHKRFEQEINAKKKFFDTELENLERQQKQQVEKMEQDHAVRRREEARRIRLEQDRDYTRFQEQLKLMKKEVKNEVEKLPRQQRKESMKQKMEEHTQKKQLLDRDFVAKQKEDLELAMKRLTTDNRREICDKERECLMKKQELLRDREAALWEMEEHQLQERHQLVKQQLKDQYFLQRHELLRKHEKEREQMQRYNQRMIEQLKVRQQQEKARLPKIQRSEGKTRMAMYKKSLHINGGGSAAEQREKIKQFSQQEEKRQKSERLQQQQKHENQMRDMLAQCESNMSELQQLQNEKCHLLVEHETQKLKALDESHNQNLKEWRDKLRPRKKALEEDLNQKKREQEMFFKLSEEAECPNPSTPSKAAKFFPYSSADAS

CC(=O)Nc1cccc(-n2c(=O)n(C3CC3)c(=O)c3c(Nc4ccc(I)cc4F)n(C)c(=O)c(C)c32)c1
% of control [1]: 70%

O=C(NOC[C@H](O)CO)c1ccc(F)c(F)c1Nc1ccc(I)cc1F
% of control [2]: 100%

COc1cc(N(C)c2ccnc3ccc(C(F)(F)F)cc23)cc(OC)c1OC
% binding [3]: 84%

CC[C@@H]1[C@H](F)C(=O)N[C@@H]1COc1nccc2cc(C(N)=O)c(OC)cc12 [ZIMLOVISERTIB]
% of inhibition ([4]; Selectivity number of off-targets 0, at 0.01 µM): 4.1% | % of inhibition ([4]; Selectivity number of off-targets 0, at 0.04 µM): 23.1% | % of inhibition ([4]; Selectivity number of off-targets 0, at 0.2 µM): 11.5% | % of inhibition ([4]; Selectivity number of off-targets 1, at 1 µM): 7.9% | % of inhibition ([4]; Selectivity number of off-targets 5, at 5 µM): 11.7%

COCC(=O)NC/C=C/c1ccc2ncnc(Nc3ccc(Oc4ccc(C)nc4)c(C)c3)c2c1 [CP-724714]
% of control [5]: 100%

C=CC(=O)Nc1cc(-n2c(=O)ccc3cnc4ccc(-c5ccc(NS(C)(=O)=O)cc5)cc4c32)ccc1C
% of control ([6]; at 1 µM): 100% | % of control ([6]; at 10 µM): 74%

O[C@H]1CC[C@H](Nc2ncc3nc(Nc4c(F)cc(F)cc4F)n([C@H]4CCOC4)c3n2)CC1
% of control [7]: 52%

CN(C)CCOc1ccc(-c2nc(-c3ccncc3)c(-c3ccc4c(c3)CC/C4=N\O)[nH]2)cc1
% of control [8]: 97% | % of control [9]: 32%

Cc1cc(-c2ccnc(Nc3cnn(C)c3)n2)ccc1CNC(=O)N1CC(OC(C)C)C1
% of control [10]: 46%

Cn1cc(-n2cnc3c(NCc4nc5cc(Cl)c(Cl)cc5[nH]4)nc(N4CCOCC4)nc32)cn1
% of control [11]: 3.53%
